Entries after “also recorded” stand apart in the source; their conditions may differ. Like-named read-outs stand apart in the source and are kept apart here.
Assays:
CHIKV [1] = assay: Time-of-drug-addition assay, CHIKV; settings: 10 μM, pretreated or treated early (−12 to 4 h)
SFV [2] = assay: CPE reduction assay, SFV
CHIKV [3] = assay: CPE reduction assay, CHIKV
VeroE6 cells = assay: Cytotoxicity in uninfected cells (MTS/PMS) of the CPE reduction assay
[4] = molecular target: host enzyme SAH hydrolase; parameters: method as in PMID 26010585; settings: in vitro; read-out: 50% inhibitory concentration, SAH hydrolase; cited from earlier work
[5] = tested on: FHNA-resistant CHIKV variants; assay type: cell-based; settings: for Fold resistance: EC50 variant/EC50 wt; for EC50: read-out: Mean EC50 ± SD
[6] = tested on: rCHIKV G230R+K299E and rCHIKV G230R+K299E+*524R; assay type: cell-based, Chikungunya virus; settings: 10 μM, both mutant viruses, MOI 1
CHIKV [7] = assay: Viral load reduction (single-cycle dose response) assay, CHIKV
SINV = assay: CPE reduction assay, SINV; settings: VeroE6 cells, MOI 0.025
SFV [8] = assay: Viral load reduction (single-cycle dose response) assay, SFV; assay type: cell-based, Semliki Forest virus; settings: 12.5 μM, VeroE6, MOI 5, 8 hpi, plaque assay
wt SFV nsP1 = molecular target: T1, wt SFV nsP1 (Semliki forest virus, UniProt P08411); assay: nsP1 enzymatic activity assay (m7GMP-nsP1 intermediate formation), wt; settings: for Inhibition of wt SFV nsP1: 10 μM SAM
T1 sequence (P08411 1-537): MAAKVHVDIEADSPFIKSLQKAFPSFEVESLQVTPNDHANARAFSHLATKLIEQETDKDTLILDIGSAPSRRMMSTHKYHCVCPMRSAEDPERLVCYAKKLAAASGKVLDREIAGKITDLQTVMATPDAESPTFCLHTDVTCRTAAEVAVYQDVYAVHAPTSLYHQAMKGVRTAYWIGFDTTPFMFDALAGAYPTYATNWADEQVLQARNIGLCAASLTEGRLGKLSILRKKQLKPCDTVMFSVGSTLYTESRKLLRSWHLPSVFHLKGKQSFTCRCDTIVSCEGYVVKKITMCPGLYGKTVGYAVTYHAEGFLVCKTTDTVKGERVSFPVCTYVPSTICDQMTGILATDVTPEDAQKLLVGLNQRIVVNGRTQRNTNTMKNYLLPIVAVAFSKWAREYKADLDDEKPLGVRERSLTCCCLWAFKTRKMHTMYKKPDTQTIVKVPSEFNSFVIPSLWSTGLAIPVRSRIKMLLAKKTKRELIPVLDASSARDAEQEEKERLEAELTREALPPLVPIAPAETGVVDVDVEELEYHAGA

rCHIKV mutants = assay: microbe, parasite or virus in culture; assay type: cell-based, Chikungunya virus; settings: for EC50: read-out: Mean EC50 ± SD

In the case of `Nc1ncnc2c1ncn2C1C(F)=C(CCO)C(O)C1O` (stereo not shown) [FHNA, 6′-fluoro-homoneplanocin A], the “CHIKV specific infectivity (genome copies vs infectious virus yield)” value (CHIKV [1]) is reported as “decrease in specific infectivity; also recorded: reduction in CHIKV-specific infectivity”, the “SI (SFV)” value (SFV [2]; CC50/EC50) is reported as over 48 and the EC50 (SFV [2]; read-out: EC50 (SFV), VeroE6 cells, MOI 0.025, MTS at 40 hpi, mean ± SD) is reported as 5.2 ± 3.2 µM. For the same compound, the “SI (CHIKV)” value (CHIKV [3]; CC50/EC50) was >1,000, the EC50 (CHIKV [3]; read-out: EC50 (CHIKV), VeroE6 cells, MOI 0.005, MTS at 96 hpi, mean ± SD) was 0.18 ± 0.11 µM and the CC50 (VeroE6 cells; read-out: CC50 (CHIKV assay), CHIKV assay format) was over 250 µM. For the same compound, the CC50 (VeroE6 cells; read-out: CC50 (SFV assay), SFV assay format) was over 250 µM, the CC50 (VeroE6 cells; read-out: CC50 (SINV assay), SINV assay format) was over 250 µM and the IC50 [4] was 0.91 µM. It also gave a Fold resistance ([5]; CHIKV wt) of 1, an EC50 ([5]; CHIKV wt, VeroE6, MOI 0.05) of 0.14 ± 0.01 µM and a Fold resistance ([5]; variant 1a) of 100. It also gave an EC50 ([5]; variant 1a) of 14.1 ± 0.01 µM, a Fold resistance ([5]; variant 1b) of 24 and an EC50 ([5]; variant 1b) of 3.4 ± 0.6 µM. For the same compound, the Fold resistance ([5]; variant 2a) was 12, the EC50 ([5]; variant 2a) was 1.7 ± 0.7 µM and the Fold resistance ([5]; variant 2b) was 21. It also gave an EC50 ([5]; variant 2b) of 3 ± 0.6 µM, a Fold resistance ([5]; variant 3) of 9 and an EC50 ([5]; variant 3) of 1.3 ± 0.8 µM. The Fold resistance ([5]; variant 4) was 27, the EC50 ([5]; variant 4) was 3.8 ± 0.3 µM and the Fold resistance ([5]; variant 5) was 13. For the same compound, the EC50 ([5]; variant 5) was 1.8 ± 0.8 µM, the “Infectious progeny titers lower than untreated controls” value ([6]; 12 hpi) was “at least 1.5 log10” and the “Infectious progeny titers lower than untreated controls” value ([6]; 24 hpi) was at least 1.2 log10. For the same compound, the “Reduction of CHIKV infectious progeny titers vs infected untreated cells” value (CHIKV [7]; 5 μM, VeroE6, MOI 1, 20 hpi, plaque assay) was 2.5 log10, the “Levels of genomic, subgenomic and negative-strand CHIKV RNA” value (CHIKV [7]; 0.1 to 10 μM, 8 hpi, in-gel hybridization) was “reduced in a dose-dependent manner” and the “Protection against SINV infection” value (SINV) was “did not confer protection; also recorded: not sensitive”. The “Reduction of SFV infectious progeny” value (SFV [8]) was over 1 log10, the “Effect on formation of m7GMP-nsP1 intermediate” value (wt SFV nsP1; 50 μM to 1 mM, 100 μM SAM, 5 mM DTT) was “did not observe any inhibitory effect” and the “Inhibition of wt SFV nsP1” value (wt SFV nsP1; 1 mM compound + 1 mM NAD+, absence of DTT) was “more than 50%”. The “Effect on formation of m7GMP-nsP1 intermediate at low SAM” value (wt SFV nsP1; 1 mM compound, 5 or 10 μM SAM) was “no direct inhibitory effect”, the “Inhibition of wt SFV nsP1” value (wt SFV nsP1; 1 mM, nonreducing conditions (absence of DTT)) was “more than 40%” and the Fold resistance (rCHIKV mutants; rCHIKV nsP1-G230R + nsP1-K299E + nsP3-*524R, EC50 mutant/EC50 wt) was 122. The EC50 (rCHIKV mutants; rCHIKV nsP1-G230R + nsP1-K299E + nsP3-*524R) was 25.6 ± 0.1 µM, the Fold resistance (rCHIKV mutants; rCHIKV nsP1-G230R + nsP1-K299E, EC50 mutant/EC50 wt) was 87 and the EC50 (rCHIKV mutants; rCHIKV nsP1-G230R + nsP1-K299E) was 18.2 ± 4.2 µM. It also gave a Fold resistance (rCHIKV mutants; rCHIKV nsP1-G230R, EC50 mutant/EC50 wt) of 2, an EC50 (rCHIKV mutants; rCHIKV nsP1-G230R) of 0.5 ± 0.33 µM and a Fold resistance (rCHIKV mutants; rCHIKV nsP1-K299E, EC50 mutant/EC50 wt) of 2. The EC50 (rCHIKV mutants; rCHIKV nsP1-K299E) was 0.5 ± 0.08 µM, the Fold resistance (rCHIKV mutants; rCHIKV nsP1-L455P, EC50 mutant/EC50 wt) was 5 and the EC50 (rCHIKV mutants; rCHIKV nsP1-L455P) was 1.1 ± 1.1 µM. For the same compound, the Fold resistance (rCHIKV mutants; rCHIKV nsP1-R171Q + nsP2-A511S + nsP3-H342Q, EC50 mutant/EC50 wt) was 49, the EC50 (rCHIKV mutants; rCHIKV nsP1-R171Q + nsP2-A511S + nsP3-H342Q) was 10.2 ± 2.6 µM and the Fold resistance (rCHIKV mutants; rCHIKV nsP1-R171Q + nsP2-A511S, EC50 mutant/EC50 wt) was 33. For the same compound, the EC50 (rCHIKV mutants; rCHIKV nsP1-R171Q + nsP2-A511S) was 6.9 ± 2.6 µM, the Fold resistance (rCHIKV mutants; rCHIKV nsP1-R171Q + nsP3-A137V, EC50 mutant/EC50 wt) was 18 and the EC50 (rCHIKV mutants; rCHIKV nsP1-R171Q + nsP3-A137V) was 3.9 ± 1.3 µM. It also gave a Fold resistance (rCHIKV mutants; rCHIKV nsP1-R171Q, EC50 mutant/EC50 wt) of 3, an EC50 (rCHIKV mutants; rCHIKV nsP1-R171Q) of 0.58 ± 0.37 µM and a Fold resistance (rCHIKV mutants; rCHIKV nsP2-A511S + nsP3-H342Q, EC50 mutant/EC50 wt) of 1. The Fold resistance (rCHIKV mutants; rCHIKV nsP2-A511S, EC50 mutant/EC50 wt) was 9, the EC50 (rCHIKV mutants; rCHIKV nsP2-A511S) was 1.9 ± 0.6 µM and the Fold resistance (rCHIKV mutants; rCHIKV nsP2-T675A + nsP3-H342Q (H342Q reverted back to wt), EC50 mutant/EC50 wt) was 36. For the same compound, the EC50 (rCHIKV mutants; rCHIKV nsP2-T675A + nsP3-H342Q (H342Q reverted back to wt)) was 7.6 ± 0.2 µM, the Fold resistance (rCHIKV mutants; rCHIKV nsP2-T675A + nsP3-H342Q + nsP3-*524R, EC50 mutant/EC50 wt) was 48 and the EC50 (rCHIKV mutants; rCHIKV nsP2-T675A + nsP3-H342Q + nsP3-*524R) was 10.1 ± 6.8 µM. For the same compound, the Fold resistance (rCHIKV mutants; rCHIKV nsP2-T675A, EC50 mutant/EC50 wt) was 4, the EC50 (rCHIKV mutants; rCHIKV nsP2-T675A) was 0.8 ± 0.08 µM and the Fold resistance (rCHIKV mutants; rCHIKV nsP3-*524R, EC50 mutant/EC50 wt) was 40. For the same compound, the EC50 (rCHIKV mutants; rCHIKV nsP3-*524R) was 8.5 ± 2.3 µM, the Fold resistance (rCHIKV mutants; rCHIKV nsP3-G177R, EC50 mutant/EC50 wt) was 2 and the EC50 (rCHIKV mutants; rCHIKV nsP3-G177R) was 0.51 ± 0.02 µM. The Fold resistance (rCHIKV mutants; rCHIKV nsP3-H342Q, EC50 mutant/EC50 wt) was 5, the EC50 (rCHIKV mutants; rCHIKV nsP3-H342Q) was 0.94 ± 0.01 µM and the Fold resistance (rCHIKV mutants; rCHIKV wt, EC50 recombinant mutant/EC50 wt) was 1. The EC50 (rCHIKV mutants; rCHIKV wt, VeroE6, MOI 0.05) was 0.21 ± 0.07 µM.

Reference: publication PMC7179274, “6′-β-Fluoro-Homoaristeromycin and 6′-Fluoro-Homoneplanocin A Are Potent Inhibitors of Chikungunya Virus Replication through Their Direct Effect on Viral Nonstructural Protein 1” (Antimicrobial Agents and Chemotherapy, 2020)
